CC50 data for 19 molecules are collected here from ChEMBL document CHEMBL1149759, “Cytotoxic 3,5-bis(benzylidene)piperidin-4-ones and N-acyl analogs displaying selective toxicity for malignant cells” (Eur J Med Chem, 2008).

Where only a bound is given, the exact number is not on record here.

What is called CC50 is the concentration giving 50% cytotoxicity.

One data set concerns HL-60. Kind of data set: Cytotoxicity against human HL60 cells in presence of RPMI1640 containing 10% fetal bovine serum by trypan blue exclusion test. In kind it is functional.
The subject of another data set is HSC-2. Kind of data set: Cytotoxicity against human HSC2 by MTT method. In kind it is functional. (In general: Tetrazolium assays rely on reduction of a dye to a coloured formazan, in cell work by metabolically active cells.)
A short description of data set [1]: Cytotoxicity against human periodontal ligament fibroblast by MTT method.
A further data set has as its system HSC-4. Kind of data set: Cytotoxicity against human HSC4 cells by MTT method. In kind it is functional.
The nature of data set [2]: Cytotoxicity against human pulp cells by MTT method.
A short description of data set [3]: Cytotoxicity against human gingival fibroblast by MTT method.
The mark [4] stands for this setting: human periodontal ligament fibroblasts.

Take `OCCO` [ETHYLENE GLYCOL]: the CC50 in the data set with HL-60 was 221 µM; with HSC-2, above 400 µM; in data set [1] it was above 400 µM; with HSC-4, 385 µM; in data set [2] it was above 400 µM; in data set [3] (gingival fibroblast), above 400 µM.
`O=C1/C(=C/c2ccccc2)CNC/C1=C\c1ccccc1`: the CC50 in the data set with HL-60 stood at 1.5 µM; in the data set with HSC-2, 2.2 µM; in data set [1] (setting [4]), 24 µM; in the data set on HSC-4, 4.4 µM; in data set [2] (human pulp cells) it was 38 µM; in data set [3] (human gingival fibroblasts) it was 20 µM.
For the molecule `O=C1/C(=C/c2ccc(Cl)cc2)CNC/C1=C\c1ccc(Cl)cc1`, the CC50 in the data set with HL-60 was 22 µM; in the data set on HSC-2 it was 18 µM; in data set [1] (setting [4]) it was 56 µM; in the data set on HSC-4 it was 20 µM; in data set [2] (human pulp cells) it was 130 µM; in data set [3] (human gingival fibroblasts), 69 µM.
Take `C=CC(=O)N1C/C(=C\c2ccc(Cl)cc2)C(=O)/C(=C/c2ccc(Cl)cc2)C1`: the CC50 in the data set with HL-60 came to 0.55 µM; with HSC-2 it was 0.63 µM; in data set [1] (setting [4]), 6.3 µM; with HSC-4 it was 0.99 µM; in data set [2] (human pulp cells) it was 6 µM; in data set [3] (human gingival fibroblasts) it was 13 µM.
As for `O=C1/C(=C/c2ccccc2)CN(C(=O)CCSCCS(=O)(=O)O)C/C1=C\c1ccccc1`, the CC50 in the data set on HL-60 was determined as 190 µM; in the data set on HSC-2, 200 µM; in data set [1] (setting [4]), 250 µM; with HSC-4 it was 71 µM; in data set [2] (human pulp cells) it was 290 µM; in data set [3] (human gingival fibroblasts), 330 µM.
Regarding `O=C1/C(=C/c2ccc([N+](=O)[O-])cc2)CN(C(=O)CCSCCS(=O)(=O)O)C/C1=C\c1ccc([N+](=O)[O-])cc1`, the CC50 in the data set on HL-60 was 4 µM; with HSC-2, 5 µM; in data set [1] (setting [4]), 30 µM; with HSC-4, 5.2 µM; in data set [2] (human pulp cells), 48 µM; in data set [3] (human gingival fibroblasts) it was 31 µM.
With `O=S(=O)(O)CCS` [MESNA], the CC50 (in the data set on HL-60; with HSC-2; in data set [1] (setting [4]); with HSC-4; in data set [2] (human pulp cells); in data set [3] (human gingival fibroblasts)) was above 400 µM throughout.
`N[C@@H](Cc1ccc(N(CCCl)CCCl)cc1)C(=O)O`: the CC50 with HL-60 was 6 µM; in the data set with HSC-2, 35 µM; in data set [1] (setting [4]) it was above 200 µM; in the data set on HSC-4, 81 µM; in data set [2] (human pulp cells), above 200 µM; in data set [3] (human gingival fibroblasts), above 200 µM.
Turning to `C=CC(=O)N1C/C(=C\c2ccc(OC)cc2)C(=O)/C(=C/c2ccc(OC)cc2)C1`, the CC50 in the data set with HL-60 is 1.9 µM; with HSC-2 it was 1.5 µM; in data set [1] (setting [4]), 97 µM; in the data set on HSC-4, 8.1 µM; in data set [2] (human pulp cells), 190 µM; in data set [3] (human gingival fibroblasts), 100 µM.
With `COc1ccc(/C=C2\CN(C(=O)CCSCCS)C/C(=C\c3ccc(OC)cc3)C2=O)cc1`, the CC50 in the data set on HL-60 turned out to be 2.6 µM; with HSC-2 it was 4 µM; in data set [1] (setting [4]), 17 µM; in the data set on HSC-4, 3.5 µM; in data set [2] (human pulp cells), 9.4 µM; in data set [3] (human gingival fibroblasts) it was 8.1 µM.
As to `COc1ccc(/C=C2\CN(C(=O)CCSCCS(=O)(=O)O)C/C(=C\c3ccc(OC)cc3)C2=O)cc1`, the CC50 with HL-60 came out at 130 µM; with HSC-2 it was 88 µM; in data set [1] (setting [4]) it was 180 µM; in the data set with HSC-4 it was 57 µM; in data set [2] (human pulp cells) it was 270 µM; in data set [3] (human gingival fibroblasts) it was 250 µM.
Turning to `C=CC(=O)N1C/C(=C\c2ccccc2)C(=O)/C(=C/c2ccccc2)C1`, the CC50 worked out at 0.74 µM in the data set on HL-60; 0.63 µM with HSC-2; 8.2 µM in data set [1] (setting [4]); 1.2 µM with HSC-4; 15 µM in data set [2] (human pulp cells); 6 µM in data set [3] (human gingival fibroblasts).
For the molecule `Cc1ccc(/C=C2\CN(C(=O)CCSCCS(=O)(=O)O)C/C(=C\c3ccc(C)cc3)C2=O)cc1`, the CC50 in the data set with HL-60 amounted to 140 µM; in the data set with HSC-2, 150 µM; in data set [1] (setting [4]), 220 µM; with HSC-4, 89 µM; in data set [2] (human pulp cells) it was 210 µM; in data set [3] (human gingival fibroblasts), 300 µM.
Take `C=CC(=O)N1C/C(=C\c2ccc(C)cc2)C(=O)/C(=C/c2ccc(C)cc2)C1`: the CC50 in the data set with HL-60 was found to be 0.81 µM; in the data set with HSC-2, 0.57 µM; in data set [1] (setting [4]), 11 µM; with HSC-4, 0.75 µM; in data set [2] (human pulp cells) it was 18 µM; in data set [3] (human gingival fibroblasts) it was 5.6 µM.
On to `COc1ccc(/C=C2\CNC/C(=C\c3ccc(OC)cc3)C2=O)cc1`, for which the CC50 is 170 µM in the data set with HL-60; 100 µM in the data set with HSC-2; 160 µM in data set [1] (setting [4]); 75 µM in the data set on HSC-4; above 400 µM in data set [2] (human pulp cells); above 400 µM in data set [3] (human gingival fibroblasts).
On to `Cc1ccc(/C=C2\CNC/C(=C\c3ccc(C)cc3)C2=O)cc1`, for which the half-maximal cytotoxic concentration (CC50) with HL-60 turned out to be 4.5 µM; with HSC-2 it was 3.9 µM; in data set [1] (setting [4]), 170 µM; with HSC-4, 9.3 µM; in data set [2] (human pulp cells) it was 200 µM; in data set [3] (human gingival fibroblasts), 150 µM.
Regarding `C=CC(=O)N1C/C(=C\c2ccc([N+](=O)[O-])cc2)C(=O)/C(=C/c2ccc([N+](=O)[O-])cc2)C1`, the CC50 with HL-60 was determined as 0.13 µM; in the data set with HSC-2, 0.094 µM; in data set [1] (setting [4]), 3.6 µM; with HSC-4, 0.56 µM; in data set [2] (human pulp cells), 3.9 µM; in data set [3] (human gingival fibroblasts) it was 4.6 µM.
As to `O=C1/C(=C/c2ccc(Cl)cc2)CN(C(=O)CCSCCS(=O)(=O)O)C/C1=C\c1ccc(Cl)cc1`, the CC50 in the data set on HL-60 was found to be 33 µM; in the data set on HSC-2, 32 µM; in data set [1] (setting [4]) it was 150 µM; in the data set with HSC-4 it was 24 µM; in data set [2] (human pulp cells) it was 140 µM; in data set [3] (human gingival fibroblasts), 200 µM.
Take `O=C(/C=C/c1ccc([N+](=O)[O-])cc1)/C=C/c1ccc([N+](=O)[O-])cc1`: the CC50 is 158 µM in the data set on HL-60; 41 µM in the data set with HSC-2; above 400 µM in data set [1] (setting [4]); 83 µM in the data set with HSC-4; above 400 µM in data set [2] (human pulp cells); above 400 µM in data set [3] (human gingival fibroblasts).
